Measured values taken from patent publication US4266034A, “Method for producing microbial cells and use thereof to produce oxidation products” (priority 1979, dated 1981).

What was measured:
[1] = tested on: cell-free particulate fractions derived from the methylotrophic microorganisms; assay: Inhibition of conversion of C3-C6 n-alkanes to sec. alcohols by cell-free particulate fractions; assay type: biochemical; conditions: oxygen and NADH
From the text: The conditions for preparing the cell suspensions or the cell-free particulate fractions from methane-grown methylotroph microorganisms is the same as described above. […] Tables XXV and XXVI show the conversion of C3 -C6 n-alkanes to the corresponding secondary alcohols using cell suspensions and cell-free particulate fractions, respectively, of methane-grown methylotroph microorganisms.

[2] = tested on: methanol-grown Methylococcus capsulatus CRL M1 (NRRL B-11,219); assay: Production of 2-butanone from 2-butanol by cell suspensions, inhibition studies; assay type: cell-based; conditions: 1 mM
[3] = tested on: secondary alcohol dehydrogenase (SADH); assay: Purified secondary alcohol dehydrogenase (SADH) activity; assay type: biochemical, Pseudomonas sp. ATCC 21439; conditions: each inhibitor 1 mM; measured spectrofluorometrically
Protocol: Secondary alcohol dehydrogenase (SADH) from an obligate methanol utilizer, Pseudomonas sp. ATCC 21439 was purified as follows. […] 0.05 M sodium phosphate buffer, pH 7.0 with 0.5 mM dithiothretol (buffer A) and were disrupted sonically (5×1 min.). The crude extract was separated by centrifugation. The crude extract was heat-treated at 50° C. in a water bath for 10 minutes. The resulting precipitate was removed by centrifugation. To the supernatant solution, 25 ml of protamine sulfate solution (2% solution in 0.1 M Tris base) was added dropwise with continuous stirring. After standing for 30 minutes, the extract was centrifuged. The supernatant solution was fractionated with solid ammonium sulfate. The material precipitating between 30 and 60% saturation was collected and was dialized overnight against buffer A. The The dialized material was applied to a DEAE-cellulose column (3 cm by 35 cm) that had been equilibrated with buffer A. The secondary alcohol dehydrogenase activity was eluted in the void volume. This DEAE-cellulose eluate was concentrated by ammonium sulfate fractionation. Material precipitating between 30 and 50% ammonium sulfate saturation was collected by centrifugation and dialyzed overnight against A. This fraction was further washed and filtered through an Amicon unit with XM 50 membrane. The concentrated fraction (6 ml) inside the Amicon unit was applied to an Affi-Gel Blue column (0.8 cm×18 cm) which had been equilibrated with buffer A for affinity chromatography. The column was washed overnight with buffer A (0.18 ml./min.) and then was eluted with buffer A containing 5 mM NAD. Each 1 ml. fraction was collected.
The purified secondary alcohol dehydrogenase enzyme (SADH) may be used directly for converting C3 -C6 secondary alcohols to the corresponding methyl ketones by the procedures described above; however, a source of NAD^+ must be added to the reaction medium. One can determine the NAD-linked secondary alcohol dehydrogenase activity with a fluorescence spectrophotometer (Perkin Elmer, Model MPF 44A) by following the formation of reduced NAD (Ex 340 nm, Em 460 nm). The assay system (3 ml.) will typically contain: sodium phosphate buffer pH 7.0, 150 μmol; NAD 1.0 μmol; a given amount of enzyme preparation; and 20 μmol secondary alcohol. The reaction is started by the addition of secondary alcohol. One unit of SADH enzyme activity represents the reduction of one nmole NAD per minute.
The effect of metal-chelating agents and thioreagents on the activity of the purified SADH enzyme were studied. […] The possibility of ethanol or n-propanol as an inhibitor was studied.

[4] = tested on: secondary alcohol dehydrogenase; assay: Purified yeast-derived secondary alcohol dehydrogenase activity; assay type: biochemical, Pichia sp. NRRL Y-11,328; conditions: purified enzyme
Protocol: Large scale cultures of Pichia sp. NRRL Y-11,328 were grown with aeration at 30° C. in a 14-liter New Brunswick f fermentor in a mineral salt medium containing methanol (0.4%, v/v) as the sole carbon source. The cells (200 g., wet weight) were suspended in […] sodium phosphate buffer, pH 7.0, containing 1 mM dithiothreitol (buffer A), and crude extracts were prepared as described previously. To the crude extracts, 18 ml. of protamine sulfate solution [2% solution in 0.1 M tris (hydroxymethyl) aminomethane (tris) base] was added dropwise with continuous stirring. After standing for 30 min., the extracts were centrifuged at 20,000×g. for 60 min. The supernatant solution was fractionated with solid ammonium sulfate. Extracts were brought to 50% of saturation with respect to ammonium sulfate by addition of 313 g. of the salt per liter of extract. Precipitated proteins was removed by centrifugation, and 137 g. of ammonium sulfate was added per liter of the supernatant liquid to bring it to 70% of saturation. Material precipitating between 50 and 70% of saturation was collected by centrifugation and dissolved in buffer A. This preparation was dialyzed overnight against buffer A, and the dialyzed material was applied to a DEAE-cellulose column (5×40 cm) that had been equilibrated with buffer A. The sample was washed with 200 ml. of buffer A and eluted with 2 liters of buffer A that contained NaCl in a linear gradient running from a concentration of 0 to 0.5 M. Fractions of 15 ml. were collected. Fractions containing secondary alcohol dehydrogenase activity were pooled and were termed DEAE-cellulose eluate. The DEAE-cellulose eluate was concentrated by ammonium sulfate fractionation.
Secondary alcohol dehydrogenase activity was measured spectrophotometrically at 340 nm with a NAD^+ as an electron acceptor. The reaction mixture, in a total 3.0 ml., contained 50 mM phosphate buffer, pH 8.0, 5 μmoles NAD^+, crude extracts, and substrate. […] Protein concentration was determined by the method of Lowry et al.
The substrate specificity of the purified secondary alcohol dehydrogenase was examined spectrophotometrically.

SMILES: c1cnc2c(c1)ccc1cccnc12 [1,10-Phenanthroline]
- inhibition of the conversion of n-alkanes to sec. alcohols [1]: inhibited
- Inhibition of 2-butanone production (yes/no) [2]: inhibited
- % inhibition of SADH activity [3]: 95%
- inhibition of secondary alcohol dehydrogenase activity [4]: strongly inhibited
